Source: article PMC7736868, “Fluorescent ligands for dopamine D2/D3 receptors” (Scientific Reports, 2020)
Read-outs that look alike come from different tables or passages of the source.

How the values were obtained:
porcine D1R = target: T1, porcine D1R (Sus scrofa, UniProt P50130); experiment: Radioligand competition, [3H]SCH23390, porcine striatum homogenates; type: binding; conditions: [3H]SCH23,390; mean of n experiments; read-out: Ki pD1R
T1 construct: homogenates obtained from porcine striatum; from tissue; host or cells: porcine striatum homogenate

porcine 5-HT1AR = target: T2, porcine 5-HT1AR (Sus scrofa, UniProt A0A4X1UTF5); experiment: Radioligand competition, [3H]WAY100,635, porcine cerebral cortex homogenates; type: binding; conditions: mean of n experiments, read-out: Ki p5-HT1AR
T2 construct: homogenates of porcine cerebral cortex; from tissue; host or cells: porcine cerebral cortex homogenate
T2 sequence (A0A4X1UTF5 1-422): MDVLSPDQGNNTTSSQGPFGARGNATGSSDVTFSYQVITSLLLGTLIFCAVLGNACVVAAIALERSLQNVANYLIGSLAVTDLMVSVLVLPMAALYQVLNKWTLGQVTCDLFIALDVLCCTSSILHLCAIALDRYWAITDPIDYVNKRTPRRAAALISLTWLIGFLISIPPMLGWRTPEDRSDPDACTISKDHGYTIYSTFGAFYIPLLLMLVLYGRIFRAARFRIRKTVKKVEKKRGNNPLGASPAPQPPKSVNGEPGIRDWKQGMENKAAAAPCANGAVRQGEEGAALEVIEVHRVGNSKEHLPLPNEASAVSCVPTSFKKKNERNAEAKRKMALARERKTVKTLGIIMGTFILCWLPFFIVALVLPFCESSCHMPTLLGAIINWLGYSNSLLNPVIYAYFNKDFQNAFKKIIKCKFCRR

porcine 5-HT2R = target: T3, porcine 5-HT2R (Sus scrofa, UniProt P50129); experiment: Radioligand competition, [3H]ketanserin, porcine cerebral cortex homogenates; type: binding; conditions: mean of n experiments, read-out: Ki p5-HT2R
T3 construct: homogenates of porcine cerebral cortex; from tissue; host or cells: porcine cerebral cortex homogenate

human D2LR = human D2LR (Homo sapiens, UniProt P14416); experiment: Radioligand competition, [3H]spiperone, CHO cell membranes
D2SR [1] = target: T4, D2SR (Homo sapiens, UniProt P14416); experiment: as above
human D3R = human D3R (Homo sapiens, UniProt P35462); experiment: as above
human D4R = target: T5, human D4R (Homo sapiens, UniProt P21917); experiment: as above
T5 sequence (P21917 1-419): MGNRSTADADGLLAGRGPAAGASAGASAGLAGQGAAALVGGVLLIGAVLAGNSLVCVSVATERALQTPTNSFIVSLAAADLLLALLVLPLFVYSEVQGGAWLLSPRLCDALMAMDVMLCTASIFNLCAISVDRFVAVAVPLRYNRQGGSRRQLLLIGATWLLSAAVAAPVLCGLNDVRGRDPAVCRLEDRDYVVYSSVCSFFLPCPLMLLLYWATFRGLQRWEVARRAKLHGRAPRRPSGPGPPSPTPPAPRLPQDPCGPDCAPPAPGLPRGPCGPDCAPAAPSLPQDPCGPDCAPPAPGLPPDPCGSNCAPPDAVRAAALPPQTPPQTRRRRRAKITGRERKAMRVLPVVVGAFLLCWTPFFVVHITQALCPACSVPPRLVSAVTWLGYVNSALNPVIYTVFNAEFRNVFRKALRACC

porcine α1-AR = experiment: Radioligand competition, [3H]prazosin, porcine cerebral cortex homogenates; conditions: read-out: Ki pα1-AR, mean of n experiments
D2SR [2] = target: T4, D2SR; experiment: β-arrestin-2 recruitment (Pathhunter, DiscoverX), HEK293 cells, GRK2 coexpressed; type: cell-based; set-up: expressed in transfected cells; conditions: for Emax: read-out: Emax β-arrestin-2 recruitment at D2SR, reference agonist quinpirole
human isoform of D1R = human isoform of D1R (Homo sapiens, UniProt P21728); experiment: Radioligand competition at human isoform of D1R; type: binding; conditions: assay performed with human isoform of D1R; [3H]SCH23,390 column
Procedure: Supplementary Table S1. Binding affinities of the test compounds. Binding affinities of the test compounds for porcine D1R, 5-HT 1AR, 5-HT 2R and α1-AR were determined by radioligand […]
a Data are indicated as m ean (and range) of (n) individual experim ents, each per form ed in triplicate; b assay perform ed with hum an isoform of D1R; c n. d. K i not determ ined as no com plete ligand displacem ent occurred;

secNluc-D3R = secNluc-D3R (UniProt P35462+Q9GV45, A31E/A60N/A81I/F95D/I117V/K70R/L54V/L99Q/M102K/N193R/P142E/Q151K/Q38R/Q45L/V71I/Y165I); experiment: NanoBRET association and dissociation kinetics, membranes; type: binding
Procedure: (a) Association of 10a at room temperature was measured by NanoBRET using secNluc-D3R membrane preparations and threefold serial dilutions of 10a (3.3–30 nM). […] Obtained IC50 values were transformed into Ki values applying the equation of Cheng and Prusoff[52]. […] Kinetic assays were monitored at room temperature and minimal possible cycle time of the CLARIOstar was used for each measurement. Data was fitted to one phase association and dissociation equations in PRISM6.0 to determine the kinetic constants. […] Addition of furimazine (1:5,000) and BRET measurements were carried out as described above. Data analysis was performed using the one site—fit Ki equation in PRISM6.0 to determine the inhibition constants (Ki) of the unlabeled ligands.

[3] = read-out: EC50 β-arrestin-2 recruitment at D2SR, mean ± SEM
[4] = read-out: Ki hD2LR, [3H]spiperone, mean ± SEM
[5] = read-out: Ki hD2SR, [3H]spiperone, mean ± SEM
[6] = read-out: Ki hD3R, [3H]spiperone, mean ± SEM
[7] = read-out: Ki hD4R, [3H]spiperone, mean ± SEM

human D2LR, sequence (P14416 whole entry): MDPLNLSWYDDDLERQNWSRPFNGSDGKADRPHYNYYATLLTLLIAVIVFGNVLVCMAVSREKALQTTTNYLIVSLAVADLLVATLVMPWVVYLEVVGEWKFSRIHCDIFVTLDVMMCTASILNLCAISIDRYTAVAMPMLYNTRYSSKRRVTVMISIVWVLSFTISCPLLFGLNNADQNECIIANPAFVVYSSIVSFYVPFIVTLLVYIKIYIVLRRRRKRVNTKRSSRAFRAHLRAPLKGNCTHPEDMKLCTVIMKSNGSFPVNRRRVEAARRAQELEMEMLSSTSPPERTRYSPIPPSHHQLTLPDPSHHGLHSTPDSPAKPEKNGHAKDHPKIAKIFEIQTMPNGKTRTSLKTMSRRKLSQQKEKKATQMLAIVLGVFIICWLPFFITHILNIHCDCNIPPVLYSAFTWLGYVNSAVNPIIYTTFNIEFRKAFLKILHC
T3 sequence (P50129 whole entry): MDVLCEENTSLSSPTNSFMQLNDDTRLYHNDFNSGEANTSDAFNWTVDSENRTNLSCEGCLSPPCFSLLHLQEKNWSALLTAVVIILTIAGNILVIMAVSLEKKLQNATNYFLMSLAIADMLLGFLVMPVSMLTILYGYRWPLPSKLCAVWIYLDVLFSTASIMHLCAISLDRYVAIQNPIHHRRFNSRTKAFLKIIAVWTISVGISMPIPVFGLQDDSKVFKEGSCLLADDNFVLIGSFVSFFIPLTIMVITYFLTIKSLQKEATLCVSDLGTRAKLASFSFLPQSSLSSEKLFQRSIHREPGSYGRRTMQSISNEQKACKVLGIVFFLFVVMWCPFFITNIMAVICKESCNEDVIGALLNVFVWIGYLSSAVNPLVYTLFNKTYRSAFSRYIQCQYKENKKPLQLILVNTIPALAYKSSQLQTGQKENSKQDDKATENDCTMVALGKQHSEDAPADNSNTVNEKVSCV
human D3R, sequence (P35462 whole entry): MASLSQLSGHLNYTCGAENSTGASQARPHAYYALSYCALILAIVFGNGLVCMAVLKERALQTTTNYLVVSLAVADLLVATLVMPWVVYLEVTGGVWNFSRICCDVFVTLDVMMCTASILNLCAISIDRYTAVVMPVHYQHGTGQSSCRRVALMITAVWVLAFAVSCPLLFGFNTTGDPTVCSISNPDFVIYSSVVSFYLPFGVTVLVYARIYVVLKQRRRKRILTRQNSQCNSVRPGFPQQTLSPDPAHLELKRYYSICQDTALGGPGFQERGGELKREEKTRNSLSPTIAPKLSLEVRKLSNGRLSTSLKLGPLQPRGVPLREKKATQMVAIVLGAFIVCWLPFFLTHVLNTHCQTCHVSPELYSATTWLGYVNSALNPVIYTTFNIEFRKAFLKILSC
T1 sequence (P50130 whole entry): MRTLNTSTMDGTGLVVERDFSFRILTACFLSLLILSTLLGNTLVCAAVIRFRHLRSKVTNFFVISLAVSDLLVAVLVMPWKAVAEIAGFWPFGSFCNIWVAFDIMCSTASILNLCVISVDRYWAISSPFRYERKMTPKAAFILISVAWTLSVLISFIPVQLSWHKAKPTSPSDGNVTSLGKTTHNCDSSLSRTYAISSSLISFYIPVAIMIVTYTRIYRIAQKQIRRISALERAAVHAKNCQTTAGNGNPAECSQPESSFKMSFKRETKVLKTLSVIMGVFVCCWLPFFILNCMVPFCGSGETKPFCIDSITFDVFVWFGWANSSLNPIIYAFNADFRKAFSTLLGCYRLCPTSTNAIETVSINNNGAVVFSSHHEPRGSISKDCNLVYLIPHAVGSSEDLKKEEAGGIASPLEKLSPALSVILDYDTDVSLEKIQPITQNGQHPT
secNluc-D3R, sequence (Q9GV45+P35462 fused with the stated changes): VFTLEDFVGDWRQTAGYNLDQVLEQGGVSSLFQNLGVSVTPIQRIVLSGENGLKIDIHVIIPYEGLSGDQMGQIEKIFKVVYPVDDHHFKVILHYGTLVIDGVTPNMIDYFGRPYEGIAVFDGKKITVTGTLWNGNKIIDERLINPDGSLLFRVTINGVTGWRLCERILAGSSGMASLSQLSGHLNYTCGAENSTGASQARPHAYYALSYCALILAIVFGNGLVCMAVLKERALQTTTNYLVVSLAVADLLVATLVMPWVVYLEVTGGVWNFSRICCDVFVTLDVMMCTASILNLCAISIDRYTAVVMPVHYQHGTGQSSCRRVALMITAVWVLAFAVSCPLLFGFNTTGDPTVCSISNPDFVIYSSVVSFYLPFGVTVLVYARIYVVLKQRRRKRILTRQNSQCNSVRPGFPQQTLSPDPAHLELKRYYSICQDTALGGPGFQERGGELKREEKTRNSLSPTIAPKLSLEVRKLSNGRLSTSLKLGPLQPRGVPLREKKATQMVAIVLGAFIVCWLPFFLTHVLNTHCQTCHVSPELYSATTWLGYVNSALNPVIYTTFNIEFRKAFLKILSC
T4 sequence (P14416 1-414 isoform P14416-2): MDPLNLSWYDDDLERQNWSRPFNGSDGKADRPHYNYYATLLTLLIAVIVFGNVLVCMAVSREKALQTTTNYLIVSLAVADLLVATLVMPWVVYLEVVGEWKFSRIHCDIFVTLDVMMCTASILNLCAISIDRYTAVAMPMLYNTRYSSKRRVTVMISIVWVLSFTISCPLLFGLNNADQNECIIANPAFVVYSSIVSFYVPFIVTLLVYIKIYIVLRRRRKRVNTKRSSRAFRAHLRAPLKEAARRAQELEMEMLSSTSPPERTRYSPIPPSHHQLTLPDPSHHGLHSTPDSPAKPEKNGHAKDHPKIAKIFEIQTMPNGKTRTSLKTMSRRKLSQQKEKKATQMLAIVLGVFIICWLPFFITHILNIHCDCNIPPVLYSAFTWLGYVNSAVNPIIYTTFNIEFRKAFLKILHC
human isoform of D1R, sequence (P21728 whole entry, canonical isoform): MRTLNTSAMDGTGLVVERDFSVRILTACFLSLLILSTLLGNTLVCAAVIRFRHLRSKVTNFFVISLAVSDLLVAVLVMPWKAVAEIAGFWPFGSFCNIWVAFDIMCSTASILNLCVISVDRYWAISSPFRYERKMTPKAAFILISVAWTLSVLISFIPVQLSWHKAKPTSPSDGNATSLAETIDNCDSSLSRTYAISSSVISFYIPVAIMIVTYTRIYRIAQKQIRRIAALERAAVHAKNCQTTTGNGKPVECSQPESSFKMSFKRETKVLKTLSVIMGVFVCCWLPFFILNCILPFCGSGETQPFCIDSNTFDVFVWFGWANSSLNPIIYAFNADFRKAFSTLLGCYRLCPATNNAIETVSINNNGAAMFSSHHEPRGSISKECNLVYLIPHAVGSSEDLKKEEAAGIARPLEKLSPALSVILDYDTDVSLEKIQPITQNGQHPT

Row | Compound | Ki (porcine D1R) [nM] | Ki (porcine 5-HT1AR) [nM] | Ki (porcine 5-HT2R) [nM] | Ki (human D2LR) [nM] | Ki (D2SR [1]) [nM] | Ki (human D3R) [nM] | Ki (human D4R) [nM] | Ki (porcine α1-AR) [nM] | further results
1 | CCCN(CCCCc1cn(-c2ccc(C#N)cc2)nn1)C1Cc2ccccc2C1 [2a] | 3000 | 52 | 850 | 8.7 ± 2.5 | 6.5 ± 1.7 | 0.41 ± 0.09 | 33 ± 7 | 87 | 
2 | N#Cc1ccc(-n2cc(CCCCN3CCN(c4cccc(Cl)c4Cl)CC3)nn2)cc1 [2b] | 540 | 260 | 1100 | 15 ± 5 | 6.3 ± 0.2 | 1 ± 0.2 | 120 ± 61 | 4.9 | 
3 | COc1ccccc1N1CCN(CCCCc2cn(-c3ccc(C#N)cc3)nn2)CC1 [2c] | 1100 | 25 | 600 | 77 ± 17 | 34 ± 8 | 13 ± 4 | 140 ± 10 | 2.4 | 
4 | CC(C)(C)c1nc(N2CCN(CCCCc3cn(-c4ccc(C#N)cc4)nn3)CC2)cc(C(F)(F)F)n1 [2d] | 5500 | 4100 | 4400 | 360 ± 60 | 350 ± 30 | 9.5 ± 1.9 | 5000 | 1100 | 
5 | CCCN(CCCCc1cn(-c2ccc(CNS(=O)(=O)c3cccc4c(N(C)C)cccc34)cc2)nn1)C1Cc2ccccc2C1 [4a] | 590 | 27 | 220 | 5.2 ± 0.6 | 1.7 ± 0.3 | 0.29 ± 0.02 | 27 ± 3 | 29 | 
6 | CN(C)c1cccc2c(S(=O)(=O)NCc3ccc(-n4cc(CCCCN5CCN(c6cccc(Cl)c6Cl)CC5)nn4)cc3)cccc12 [4b] | 190 | 78 | 390 | 20 ± 8 | 5.1 ± 1.7 | 1.9 ± 0.7 | 59 ± 20 | 7.9 | 
7 | COc1ccccc1N1CCN(CCCCc2cn(-c3ccc(CNS(=O)(=O)c4cccc5c(N(C)C)cccc45)cc3)nn2)CC1 [4c] | 180 | 55 | 450 | 17 ± 7 | 8.4 ± 3.4 | 6.5 ± 2.3 | 32 ± 6 | 1.1 | 
8 | CN(C)c1cccc2c(S(=O)(=O)NCc3ccc(-n4cc(CCCCN5CCN(c6cc(C(F)(F)F)nc(C(C)(C)C)n6)CC5)nn4)cc3)cccc12 [4d] | > 10000 | > 10000 | > 10000 | 7600 | 6000 | 11 ± 2 | > 10000 | 3000 | decrease of D2LR affinity by introduction of the dansyl moiety (factor) (human D2LR; 4d versus 2d): ~ 20; decrease of D2SR affinity by introduction of the dansyl moiety (factor) (D2SR [1]; 4d versus 2d): ~ 20
9 | CCCN(CCCCc1cn(-c2ccc(C(=O)NCCCN)cc2)nn1)C1Cc2ccccc2C1 [7a] | 3600 | 13 | 400 | 3.5 ± 0.4 | 1.8 ± 0.2 | 0.26 ± 0.03 | 8.5 ± 0.8 | 37 | 
10 | CCCN(CCCCc1cn(-c2ccc(C(=O)NCCCNS(=O)(=O)c3cccc4c(N(C)C)cccc34)cc2)nn1)C1Cc2ccccc2C1 [8a] | 1100 | 70 | 690 | 1.2 ± 0.2 | 0.44 ± 0.12 | 0.32 ± 0.05 | 10 ± 4 | 22 | EC50 (D2SR [2]; mean ± SEM): 51 ± 11 nM; Emax (D2SR [2]): 98 ± 2%
11 | CN(C)c1cccc2c(S(=O)(=O)NCCCNC(=O)c3ccc(-n4cc(CCCCN5CCN(c6cccc(Cl)c6Cl)CC5)nn4)cc3)cccc12 [8b] | 340 | 170 | 380 | 13 ± 6 | 3.6 ± 1.6 | 1.9 ± 0.9 | 130 ± 10 | 23 | 
12 | CCCN(CCCCc1cn(-c2ccc(CNC(=O)c3ccc(-c4c5ccc(=NCC(F)(F)F)cc-5oc5cc(NCC(F)(F)F)ccc45)c(C(=O)O)c3)cc2)nn1)C1Cc2ccccc2C1 [10a] |  |  |  | 46 ± 7 | 21 ± 4 | 0.97 ± 0.23 | 56 ± 4 | 100 | Ki (human isoform of D1R): 310 nM; koff (secNluc-D3R): 0.0009 s⁻¹; residence time (secNluc-D3R): 19 ± 1 min; kon (secNluc-D3R; read-out: Kon association rate constant): 170000 M⁻¹ s⁻¹; EC50 (D2SR [2]; mean ± SEM): 410 ± 70 nM; Emax (D2SR [2]): 89 ± 3%
13 | CCCN(CCCCc1cn(-c2ccc(C(=O)NCCCNC(=O)Cc3ccc4c(c3)C(C)(C)C3=C5C=C6C7=[N+](CCC6OC5CCN34)c3ccc(S(=O)(=O)[O-])cc3C7(C)C)cc2)nn1)C1Cc2ccccc2C1 (stereo not drawn) [10b] | 5100 | 120 | 330 |  |  |  |  | 87 | EC50 (D2SR [2]; [3]): 410 ± 60 nM; Emax (D2SR [2]): 79 ± 3%; Ki (human D2LR; [4]): 10 ± 2 nM; Ki (D2SR [1]; [5]): 4.8 ± 1 nM; Ki (human D3R; [6]): 0.9 ± 0.26 nM; Ki (human D4R; [7]): 50 ± 7 nM
14 | CCCN(CCCCc1cn(-c2ccc(C(=O)NCCCNC(=O)c3ccc(-c4c5ccc(=N)c(S(=O)(=O)O)c-5oc5c(S(=O)(=O)O)c(N)ccc45)c(C(=O)O)c3)cc2)nn1)C1Cc2ccccc2C1 [10c] | 5100 | 85 | 2200 |  |  |  |  | 150 | EC50 (D2SR [2]; [3]): 100 ± 20 nM; Emax (D2SR [2]): 93 ± 3%; Ki (human D2LR; [4]): 23 ± 5 nM; Ki (D2SR [1]; [5]): 15 ± 4 nM; Ki (human D3R; [6]): 0.76 ± 0.11 nM; Ki (human D4R; [7]): 47 ± 9 nM
